Measurements from US9227921B2, “Salts and polymorphs of a tetracycline compound” (Paratek Pharmaceuticals, Inc., priority 2008, dated 2016).

Assays:
Assay type in all cases: physicochemical
[1] = Temperature and moisture stability study (HPLC impurity profile)
Method: A stability study was conducted on tosylate salt and mesylate salt of Compound 1, by monitoring changes in the high performance liquid chromatography (HPLC) impurity profiles for each salt when exposed to various temperatures and/or humidity conditions. Each sample was placed in a closed container and exposed to three controlled environments: refrigerated (5° C.), 20° C. and 60% relative humidity, and 40° C. and 75% relative humidity. […] The stability study of the crystalline tosylate salt was continued.
Samples were analyzed by the following reversed-phase HPLC impurity profile method at time points 0, 1, 2, 4 weeks (Table 7) and 3 months (Table 8) for the tosylate salt; and 0, 1 and 2 weeks for the mesylate salt (Table 9).
(§1) Reversed-phase HPLC analysis was conducted using a SYMMETRY SHIELD RP18 column (4.6×250 mm, 5 µm particle size), although analysis using a similar or equivalent column would be expected to yield similar results. The mobile phase components were 0.01 M ammonium acetate in water at pH 3.3 (A) and acetonitrile (B). The mobile phase composition was a gradient that increased from 6% to 15% B in five minutes, held at 15% B for 15 minutes, increased from 15% to 60% B in ten minutes, then from 60% to 90% B in two minutes, and then the system was re-equilibrated at 6% B for four minutes. The flow rate was 1.0 mL/minute, and the injection volume was 10.0 μL. The column temperature was maintained at 30° C. Detection was by ultraviolet light (UV) at 280 nm. The retention time for Compound 1 was approximately 15.7 minutes. The sample solution was prepared in mobile phase A to a final concentration of 2.0 mg/mL.

[2] = Photostability study (HPLC impurity profile)
Method: as §1
A photostability study was conducted on the tosylate salt of Compound 1. Two samples were prepared in clear glass Petri dishes. One sample was wrapped in aluminum foil to serve as a control sample. Both samples were placed in the ES 2000 Environmental Light 10 Chamber and exposed to 12 kilolux of cool white fluorescent light for a total of 47 hours.

[3] = Solubility of crystalline tosylate salt (excess solids, HPLC of supernatant); settings: for Solubility: ambient temperature, two hours
Method: (§2) The solubilities were determined by mixing excess solids with solvent, at ambient temperature for two hours, followed by filtration of the supernatant. The supernatant concentration was determined by high-performance liquid chromatography (HPLC). […] The pH of 122.1 mg of the subject crystalline tosylate salt in 1.0 mL of water was determined to be 5.70.

[4] = Hygroscopicity by symmetric vapor sorption analyzer; settings: 95% RH, 25.0° C.
Method: The hygroscopicity of the subject crystalline tosylate salt was determined using a symmetric vapor sorption analyzer, and reported as wt % gained as a function of percent relative humidity (% RH) from 5% to 95% to 1%, at 5% intervals at 25.0° C. A maximum weight gain of 12 wt % at 95% RH, with slight hysteresis upon desorption, was observed, and a 2 wt % loss due to IPA was observed.

[5] = Water content and room temperature stability of crystalline tosylate salt
Method: Upon drying, water content in the crystalline tosylate salt of Compound 1 was calculated to be 0.5%. After standing at room temperature for 24 hours, this value increased to 5%. In contrast to the amorphous Compound 1, the crystalline tosylate salt of Compound 1 was stable for weeks and months at room temperature, maintaining a water content of approximately 5%.

[6] = pH of crystalline tosylate salt in water; settings: 122.1 mg in 1.0 mL of water
Method: as §2

[7] = Stability studies on free base Compound 1 and amorphous diHCl salt
Method: Stability studies were performed on the free base Compound 1 and an amorphous diHCl salt of Compound 1. This salt was formed by dissolving the compound in aqueous solution, adjusting the pH of the solution to approximately 4.2, followed by lyophilization. The free base degraded in less than one month at 40° C., and approximately three months at 4° C. In contrast, the diHCl salt of Compound 1 was stable for 6 months at 40° C., and for two years at room temperature (25° C.).

[8] = Solid phase stability of amorphous Compound 1; settings: temperatures higher than 0° C. and when exposed to air
Excerpt: Tetracycline-type antibiotic compounds have long been known to have limited stability in the solid phase freebase form. One such non-crystalline tetracycline analog compound, (4S,4AS,5AR,12AS)-4-7-Bis(dimethylamino)-9-{[(2,2-dimethylpropyl)amino]methyl}-3,10,12,12A-tetrahydroxy-1,1′-dioxo-1,4,4A,5,5A,6,11,12A-octahydrotetracene-2-carboxamide (Compound 1; MW=556.66, MF=C29H40N4O7), has limited stability in the solid phase upon exposure to air, light and/or moisture.
Specifically, Compound 1 is a yellow amorphous solid that is unstable at temperatures higher than 0° C. and when exposed to air. Compound 1 must be stored at temperatures below 0° C. with limited exposure in the solid phase to air, light and moisture. Outside of these limited exposure conditions, Compound 1 degrades to produce degradation products including air degradation products 2, 3 and 4, as well as the 4-epi-isomer 5.

[9] = Control sample wrapped in aluminum foil, 47 hours in light chamber
[10] = Exposed to 12 kilolux cool white fluorescent light, 47 hours
[11] = room temperature, weeks and months

SMILES: CN(C)c1cc(CNCC(C)(C)C)c(O)c2c1CC1CC3C(N(C)C)C(O)=C(C(N)=O)C(=O)C3(O)C(O)=C1C2=O.Cc1ccc(S(=O)(=O)O)cc1 (stereo not shown) [tosylate salt of Compound 1]
- 4-keto compound RRT = 1.57 ([1]; 0 month, 20° C. & 60% RH): 0.05%
- Beta-epimer RRT = 1.26 ([1]; 0 month, 20° C. & 60% RH): 1.76%
- Total impurity ([1]; 0 month, 20° C. & 60% RH): 2.12%
- 4-keto compound RRT = 1.57 ([1]; 0 month, 40° C. & 75% RH): 0.05%
- Beta-epimer RRT = 1.26 ([1]; 0 month, 40° C. & 75% RH): 1.76%
- Total impurity ([1]; 0 month, 40° C. & 75% RH): 2.12%
- Compound 1 ([1]; 1 week, 5° C.): 98.5%
- RRT 0.52 ([1]; 1 week, 5° C.): 0.09%
- RRT 1.19 ([1]; 1 week, 5° C.): 0.21%
- RRT 1.26 (beta-epimer) ([1]; 1 week, 5° C.): 1.1%
- RRT 1.77 ([1]; 1 week, 5° C.): 0.11%
- Total Impurities ([1]; 1 week, 5° C.): 1.51
- Compound 1 ([1]; 1 week, 20° C. & 60% RH): 98.3%
- RRT 0.52 ([1]; 1 week, 20° C. & 60% RH): 0.09%
- RRT 1.19 ([1]; 1 week, 20° C. & 60% RH): 0.21%
- RRT 1.26 (beta-epimer) ([1]; 1 week, 20° C. & 60% RH): 1.2%
- RRT 1.77 ([1]; 1 week, 20° C. & 60% RH): 0.12%
- Total Impurities ([1]; 1 week, 20° C. & 60% RH): 1.63
- Compound 1 ([1]; 1 week, 40° C. & 75% RH): 98.2%
- RRT 0.52 ([1]; 1 week, 40° C. & 75% RH): 0.09%
- RRT 0.77 ([1]; 1 week, 40° C. & 75% RH): 0.05%
- RRT 1.19 ([1]; 1 week, 40° C. & 75% RH): 0.21%
- RRT 1.26 (beta-epimer) ([1]; 1 week, 40° C. & 75% RH): 1.3%
- RRT 1.77 ([1]; 1 week, 40° C. & 75% RH): 0.14%
- Total Impurities ([1]; 1 week, 40° C. & 75% RH): 1.80
- Compound 1 ([1]; 2 weeks, 5° C.): 98.4%
- RRT 0.52 ([1]; 2 weeks, 5° C.): 0.08%
- RRT 0.93 ([1]; 2 weeks, 5° C.): 0.08%
- RRT 1.19 ([1]; 2 weeks, 5° C.): 0.24%
- RRT 1.26 (beta-epimer) ([1]; 2 weeks, 5° C.): 1.1%
- RRT 1.77 ([1]; 2 weeks, 5° C.): 0.12%
- Total Impurities ([1]; 2 weeks, 5° C.): 1.62
- Compound 1 ([1]; 2 weeks, 20° C. & 60% RH): 98.4%
- RRT 0.52 ([1]; 2 weeks, 20° C. & 60% RH): 0.08%
- RRT 0.93 ([1]; 2 weeks, 20° C. & 60% RH): 0.08%
- RRT 1.19 ([1]; 2 weeks, 20° C. & 60% RH): 0.25%
- RRT 1.26 (beta-epimer) ([1]; 2 weeks, 20° C. & 60% RH): 1.1%
- RRT 1.77 ([1]; 2 weeks, 20° C. & 60% RH): 0.15%
- Total Impurities ([1]; 2 weeks, 20° C. & 60% RH): 1.66
- Compound 1 ([1]; 2 weeks, 40° C. & 75% RH): 98.3%
- RRT 0.52 ([1]; 2 weeks, 40° C. & 75% RH): 0.08%
- RRT 0.93 ([1]; 2 weeks, 40° C. & 75% RH): 0.09%
- RRT 1.19 ([1]; 2 weeks, 40° C. & 75% RH): 0.25%
- RRT 1.26 (beta-epimer) ([1]; 2 weeks, 40° C. & 75% RH): 1.1%
- RRT 1.77 ([1]; 2 weeks, 40° C. & 75% RH): 0.16%
- Total Impurities ([1]; 2 weeks, 40° C. & 75% RH): 1.68
- 4-keto compound RRT = 1.57 ([1]; 3 month, 20° C. & 60% RH): 0.10%
- Beta-epimer RRT = 1.26 ([1]; 3 month, 20° C. & 60% RH): 1.74%
- M-2 impurity RRT = 0.84 ([1]; 3 month, 20° C. & 60% RH): 0.18%
- Total impurity ([1]; 3 month, 20° C. & 60% RH): 2.86%
- 4-keto compound RRT = 1.57 ([1]; 3 month, 40° C. & 75% RH): 0.14%
- Beta-epimer RRT = 1.26 ([1]; 3 month, 40° C. & 75% RH): 1.66%
- M-2 impurity RRT = 0.84 ([1]; 3 month, 40° C. & 75% RH): 0.31%
- Total impurity ([1]; 3 month, 40° C. & 75% RH): 3.12%
- Compound 1 ([1]; 4 weeks, 5° C.): 98.3%
- RRT 0.52 ([1]; 4 weeks, 5° C.): 0.09%
- RRT 0.77 ([1]; 4 weeks, 5° C.): 0.08%
- RRT 0.93 ([1]; 4 weeks, 5° C.): 0.07%
- RRT 1.19 ([1]; 4 weeks, 5° C.): 0.23%
- RRT 1.26 (beta-epimer) ([1]; 4 weeks, 5° C.): 1.0%
- RRT 1.77 ([1]; 4 weeks, 5° C.): 0.14%
- Total Impurities ([1]; 4 weeks, 5° C.): 1.61
- Compound 1 ([1]; 4 weeks, 20° C. & 60% RH): 98.2%
- RRT 0.52 ([1]; 4 weeks, 20° C. & 60% RH): 0.10%
- RRT 0.77 ([1]; 4 weeks, 20° C. & 60% RH): 0.10%
- RRT 0.93 ([1]; 4 weeks, 20° C. & 60% RH): 0.12%
- RRT 1.19 ([1]; 4 weeks, 20° C. & 60% RH): 0.24%
- RRT 1.26 (beta-epimer) ([1]; 4 weeks, 20° C. & 60% RH): 1.1%
- RRT 1.77 ([1]; 4 weeks, 20° C. & 60% RH): 0.18%
- Total Impurities ([1]; 4 weeks, 20° C. & 60% RH): 1.84
- Compound 1 ([1]; 4 weeks, 40° C. & 75% RH): 98.1%
- RRT 0.52 ([1]; 4 weeks, 40° C. & 75% RH): 0.10%
- RRT 0.77 ([1]; 4 weeks, 40° C. & 75% RH): 0.17%
- RRT 0.93 ([1]; 4 weeks, 40° C. & 75% RH): 0.13%
- RRT 1.19 ([1]; 4 weeks, 40° C. & 75% RH): 0.26%
- RRT 1.26 (beta-epimer) ([1]; 4 weeks, 40° C. & 75% RH): 1.1%
- RRT 1.77 ([1]; 4 weeks, 40° C. & 75% RH): 0.20%
- Total Impurities ([1]; 4 weeks, 40° C. & 75% RH): 1.96
- Compound 1 ([1]; Initial): 98.4%
- RRT 0.52 ([1]; Initial): 0.06%
- RRT 1.19 ([1]; Initial): 0.24%
- RRT 1.26 (beta-epimer) ([1]; Initial): 1.2%
- RRT 1.77 ([1]; Initial): 0.10%
- Total Impurities ([1]; Initial): 1.60
- relative stability among crystalline forms ([1]; after two weeks, 5° C., 20° C. & 60% RH, 40° C. & 75% RH): most stable crystalline form
- storage stability ([1]; refrigerated and/or 20° C. & 60% RH, at least four weeks): stable
- Compound 1 [2, 9]: 98.2%
- RRT 0.52 [2, 9]: 0.06%
- RRT 0.77 [2, 9]: 0.08%
- RRT 0.93 [2, 9]: 0.12%
- RRT 1.19 [2, 9]: 0.26%
- RRT 1.26 [2, 9]: 1.2%
- RRT 1.77 [2, 9]: 0.16%
- Compound 1 [2, 10]: 98.2%
- RRT 0.52 [2, 10]: 0.06%
- RRT 0.77 [2, 10]: 0.09%
- RRT 0.93 [2, 10]: 0.13%
- RRT 1.19 [2, 10]: 0.26%
- RRT 1.26 [2, 10]: 1.1%
- RRT 1.77 [2, 10]: 0.16%
- Equilibration in water (appearance) ([3]; 56.8 mg in 0.5 mL water): clear solutions
- Equilibration in water (appearance) ([3]; 122.1 mg in 1.0 mL water): clear solutions
- Solubility ([3]; Acetonitrile): 5.9 mg/mL
- Solubility ([3]; IPA): 5.8 mg/mL
- Solubility ([3]; Methanol): 86.1 mg/mL
- Solubility ([3]; Water): >100 mg/mL
- maximum weight gain (hygroscopicity) [4]: 12 wt %
- water content ([5]; after standing at room temperature for 24 hours): 5%
- stability at room temperature [5, 11]: stable
- water content maintained [5, 11]: approximately 5%
- water content ([5]; upon drying): 0.5%
- pH [6]: 5.70

SMILES: CN(C)c1cc(CNCC(C)(C)C)c(O)c2c1C[C@H]1C[C@H]3[C@H](N(C)C)C(O)=C(C(N)=O)C(=O)[C@@]3(O)C(O)=C1C2=O [Compound 1, (4S,4AS,5AR,12AS)-4-7-Bis(dimethylamino)-9{[(2,2-dimethylpropyl)amino]methyl}-3,10,12,12A-tetrahydroxy-1,1′-dioxo-1,4,4A,5,5A,6,11,12A-octahydrotetracene-2-carboxamide]
- time in which the substance degraded ([7]; 4° C.): approximately three
- time in which the substance degraded ([7]; 40° C.): less than one
- solid phase stability [8]: unstable
